“And” between values parts separate entries of the source, which are not always exact repeats. Equal entries are not always repeated.
What was measured:
Format in all cases: functional
[1] = system: HCC 2998; assay: Cytotoxicity against Homo sapiens (human) HCC2998 cells at 10^-4 to 10^-8 M after 48 hr by SRB assay; details: HCC 2998, 48 h, read-out: pTGI (converted)
[2] = system: SNB-75; assay: Cytotoxicity against Homo sapiens (human) SNB75 cells at 10^-4 to 10^-8 M after 48 hr by SRB assay; details: SNB-75, 48 h, read-out: pTGI (converted)
[3] = system: OVCAR-5; assay: Cytotoxicity against Homo sapiens (human) OVCAR5 cells after 48 hr by SRB assay
[4] = system: UACC-257; assay: Cytotoxicity against Homo sapiens (human) UACC257 cells after 48 hr by SRB assay
[5] = system: OVCAR-3; assay: Cytotoxicity against Homo sapiens (human) OVCAR3 cells at 10^-4 to 10^-8 M after 48 hr by SRB assay; details: OVCAR-3, 48 h, read-out: pTGI (converted)
[6] = system: MDA-MB-231; assay: Cytotoxicity against Homo sapiens (human) MDA-MB-231 cells at 10^-4 to 10^-8 M after 48 hr by SRB assay; details: MDA-MB-231, 48 h, read-out: pTGI (converted)
[7] = system: Hs-578T; assay: Cytotoxicity against Homo sapiens (human) Hs578T cells at 10^-4 to 10^-8 M after 48 hr by SRB assay; details: read-out: pTGI (converted)
[8] = system: UO-31; assay: Cytotoxicity against Homo sapiens (human) UO31 cells after 48 hr by SRB assay
[9] = system: K562; assay: Cytotoxicity against Homo sapiens (human) K562 cells at 10^-4 to 10^-8 M after 48 hr by SRB assay; details: K562, 48 h, read-out: pTGI (converted)
[10] = system: U-251; assay: Cytotoxicity against Homo sapiens (human) U251 cells at 10^-4 to 10^-8 M after 48 hr by SRB assay; details: U-251, 48 h, read-out: pTGI (converted)
[11] = system: SF-539; assay: Cytotoxicity against Homo sapiens (human) SF539 cells at 10^-4 to 10^-8 M after 48 hr by SRB assay; details: SF-539, 48 h, read-out: pTGI (converted)
[12] = system: BT-549; assay: Cytotoxicity against Homo sapiens (human) BT549 cells at 10^-4 to 10^-8 M after 48 hr by SRB assay; details: BT-549, 48 h, read-out: pTGI (converted)
[13] = system: HCT-15; assay: Cytotoxicity against Homo sapiens (human) HCT15 cells at 10^-4 to 10^-8 M after 48 hr by SRB assay; details: HCT-15, 48 h, read-out: pTGI (converted)
[14] = system: EKVX; assay: Cytotoxicity against Homo sapiens (human) EKVX cells at 10^-4 to 10^-8 M after 48 hr by SRB assay; details: read-out: pTGI (converted)
[15] = Cytotoxicity against Homo sapiens (human) NCI-ADR-RES cells at 10^-4 to 10^-8 M after 48 hr by SRB assay; details: read-out: pTGI (converted)
[16] = system: NCI-H322M; assay: Cytotoxicity against Homo sapiens (human) NCI-H322M cells after 48 hr by SRB assay
[17] = system: HOP-62; assay: Cytotoxicity against Homo sapiens (human) HOP62 cells after 48 hr by SRB assay
[18] = system: TK-10; assay: Cytotoxicity against Homo sapiens (human) TK10 cells at 10^-4 to 10^-8 M after 48 hr by SRB assay; details: TK-10, 48 h, read-out: pTGI (converted)
[19] = system: HOP-92; assay: Cytotoxicity against Homo sapiens (human) HOP92 cells at 10^-4 to 10^-8 M after 48 hr by SRB assay; details: HOP-92, 48 h, read-out: pTGI (converted)
[20] = system: SK-MEL-28; assay: Cytotoxicity against Homo sapiens (human) SK-MEL-28 cells at 10^-4 to 10^-8 M after 48 hr by SRB assay; details: SK-MEL-28, 48 h, read-out: pTGI (converted)
[21] = system: SNB-75; assay: Cytotoxicity against Homo sapiens (human) SNB75 cells after 48 hr by SRB assay
[22] = system: KM12; assay: Cytotoxicity against Homo sapiens (human) KM12 cells at 10^-4 to 10^-8 M after 48 hr by SRB assay; details: KM12, 48 h, read-out: pTGI (converted)
[23] = system: A498; assay: Cytotoxicity against Homo sapiens (human) A498 cells at 10^-4 to 10^-8 M after 48 hr by SRB assay; details: A498, 48 h, read-out: pTGI (converted)
[24] = system: HT-29; assay: Cytotoxicity against Homo sapiens (human) HT-29 cells at 10^-4 to 10^-8 M after 48 hr by SRB assay; details: HT-29, 48 h, read-out: pTGI (converted)
[25] = system: DU-145; assay: Cytotoxicity against Homo sapiens (human) DU145 cells after 48 hr by SRB assay
[26] = system: SK-MEL-28; assay: Cytotoxicity against Homo sapiens (human) SK-MEL-28 cells after 48 hr by SRB assay
[27] = system: SW-620; assay: Cytotoxicity against Homo sapiens (human) SW620 cells at 10^-4 to 10^-8 M after 48 hr by SRB assay; details: SW-620, 48 h, read-out: pTGI (converted)
[28] = system: HL-60(TB); assay: Cytotoxicity against Homo sapiens (human) HL-60(TB) cells at 10^-4 to 10^-8 M after 48 hr by SRB assay; details: HL-60, 48 h, read-out: pTGI (converted)
[29] = system: UACC-62; assay: Cytotoxicity against Homo sapiens (human) UACC62 cells at 10^-4 to 10^-8 M after 48 hr by SRB assay; details: UACC-62, 48 h, read-out: pTGI (converted)
[30] = system: OVCAR-3; assay: Cytotoxicity against Homo sapiens (human) OVCAR3 cells after 48 hr by SRB assay
[31] = system: SF-295; assay: Cytotoxicity against Homo sapiens (human) SF295 cells at 10^-4 to 10^-8 M after 48 hr by SRB assay; details: SF-295, 48 h, read-out: pTGI (converted)
[32] = system: SK-OV-3; assay: Cytotoxicity against Homo sapiens (human) SKOV3 cells after 48 hr by SRB assay
[33] = system: SW-620; assay: Cytotoxicity against Homo sapiens (human) SW620 cells after 48 hr by SRB assay
[34] = system: T47D; assay: Cytotoxicity against Homo sapiens (human) T47D cells at 10^-4 to 10^-8 M after 48 hr by SRB assay; details: read-out: pTGI (converted)
[35] = Cytotoxicity against Homo sapiens (human) NCI-ADR-RES cells after 48 hr by SRB assay
[36] = system: HT-29; assay: Cytotoxicity against Homo sapiens (human) HT-29 cells after 48 hr by SRB assay
[37] = system: EKVX; assay: Cytotoxicity against Homo sapiens (human) EKVX cells after 48 hr by SRB assay
[38] = system: OVCAR-5; assay: Cytotoxicity against Homo sapiens (human) OVCAR5 cells at 10^-4 to 10^-8 M after 48 hr by SRB assay; details: OVCAR-5, 48 h, read-out: pTGI (converted)
[39] = Homo sapiens, NCI/ADR-RES, 48 h

SMILES	TGI [1] [µM]	TGI [2] [µM]	TGI [5] [µM]	TGI [6] [µM]	TGI [7] [µM]	TGI [9] [µM]	TGI [10] [µM]	TGI [11] [µM]	TGI [12] [µM]	TGI [13] [µM]	TGI [14] [µM]	TGI [15] [µM]	TGI [18] [µM]	TGI [19] [µM]	TGI [20] [µM]	TGI [22] [µM]	TGI [23] [µM]	TGI [24] [µM]	TGI [27] [µM]	TGI [28] [µM]	further results
COC(=O)[C@]12CCC(C)(C)C[C@H]1C1=CC[C@@H]3[C@@]4(C)CC/C(=N\O)C(C)(C)[C@@H]4CC[C@@]3(C)[C@]1(C)CC2	42.7	38.9	35.5	40.7	66.1	> 100	33.9	41.7	> 100	55	72.4	> 100	97.7	39.8	66.1	> 100	63.1	79.4	40.7	> 100	GI50 ([3]; Homo sapiens, OVCAR-5, 48 h): 24.5 µM; GI50 ([4]; Homo sapiens, UACC-257, 48 h): 33.1 µM; GI50 ([8]; Homo sapiens, UO-31, 48 h): 22.4 µM; GI50 ([16]; Homo sapiens, NCI-H322M, 48 h): 72.4 µM; GI50 ([17]; Homo sapiens, HOP-62, 48 h): 21.4 µM; GI50 ([21]; Homo sapiens, SNB-75, 48 h): 18.2 µM; GI50 ([25]; Homo sapiens, DU-145, 48 h): 20.4 µM; GI50 ([26]; Homo sapiens, SK-MEL-28, 48 h): 24.5 µM; TGI [29]: 56.2 µM; GI50 ([30]; Homo sapiens, OVCAR-3, 48 h): 18.6 µM; TGI [31]: 37.2 µM; GI50 ([32]; Homo sapiens, SK-OV-3, 48 h): 40.7 µM; GI50 ([33]; Homo sapiens, SW-620, 48 h): 20 µM; TGI [34]: 72.4 µM; GI50 [35, 39]: 37.2 µM; GI50 ([36]; Homo sapiens, HT-29, 48 h): 22.9 µM; GI50 ([37]; Homo sapiens, EKVX, 48 h): 28.2 µM; TGI [38]: 55 µM
CC1(C)CC[C@@]23CC[C@]4(C)[C@@](OC2=O)([C@@H]3C1)[C@@H](Br)C[C@@H]1[C@@]2(C)CC/C(=N\O)C(C)(C)[C@@H]2CC[C@]14C	> 100	60.3	49	47.9	24.5	> 100	> 100	> 100	69.2	> 100	> 100	> 100	52.5	46.8	> 100	> 100	> 100	> 100	> 100	> 100	GI50 ([3]; Homo sapiens, OVCAR-5, 48 h): > 100 µM; GI50 ([4]; Homo sapiens, UACC-257, 48 h): 14.8 µM; GI50 ([8]; Homo sapiens, UO-31, 48 h): 40.7 µM; GI50 ([16]; Homo sapiens, NCI-H322M, 48 h): 20 µM; GI50 ([17]; Homo sapiens, HOP-62, 48 h): 40.7 µM; GI50 ([21]; Homo sapiens, SNB-75, 48 h): 20.4 µM; GI50 ([25]; Homo sapiens, DU-145, 48 h): 14.1 µM; GI50 ([26]; Homo sapiens, SK-MEL-28, 48 h): 43.7 µM; TGI [29]: > 100 µM; GI50 ([30]; Homo sapiens, OVCAR-3, 48 h): 11.5 µM; TGI [31]: 36.3 µM; GI50 ([32]; Homo sapiens, SK-OV-3, 48 h): 30.9 µM; GI50 ([33]; Homo sapiens, SW-620, 48 h): 6.76 µM; TGI [34]: 74.1 µM; GI50 [35, 39]: 26.9 µM; GI50 ([36]; Homo sapiens, HT-29, 48 h): 17.8 µM; GI50 ([37]; Homo sapiens, EKVX, 48 h): 91.2 µM; TGI [38]: > 100 µM
COC(=O)[C@]12CCC(C)(C)C[C@H]1C1=CC[C@@H]3[C@@]4(C)CC/C(=N\OC(=O)/C=C5/SC(=O)NC5=O)C(C)(C)[C@@H]4CC[C@@]3(C)[C@]1(C)CC2	12.3	22.9	3.47	7.59	6.76	8.13	3.39	3.63	9.12	11	22.4	22.9	8.13	4.68	3.8	12.6	5.75	5.13	3.89	5.37	GI50 [3]: 60.3 µM and 18.6 µM; GI50 [4]: 51.3 µM and 11.5 µM; GI50 [8]: 5.75 µM and 1.48 µM; GI50 [16]: 58.9 µM and 18.2 µM; GI50 [17]: 64.6 µM and 20 µM; GI50 [21]: 49 µM and 10.7 µM; GI50 [25]: 42.7 µM and 5.13 µM; GI50 [26]: 7.08 µM and 2.04 µM; TGI [29]: 10.2 µM; GI50 [30]: 6.31 µM and 1.91 µM; TGI [31]: 20.9 µM; GI50 [32]: 61.7 µM and 20 µM; GI50 [33]: 7.59 µM and 2 µM; TGI [34]: 18.6 µM; GI50 [35]: 61.7 µM and 7.59 µM; GI50 [36]: 15.8 µM and 2.24 µM; GI50 [37]: 56.2 µM and 6.76 µM; TGI [38]: 33.9 µM

From ChEMBL document CHEMBL3045033, “Synthesis of new potential anticancer agents based on 4-thiazolidinone and oleanane scaffolds” (Med Chem Res, 2012)
